In patent US12371416B2, “Compounds for inhibition of fibroblast activation protein” (USTAV ORGANICKE CHEMIE A BIOCHEMIE AV CR, V. V. I., priority 2020, dated 2025):

Experiments:
Type in all cases: cell-based, human
Conditions in all cases: 72 h
CCRF-CEM = assay: Cytotoxicity (XTT) on CCRF-CEM cells
Experimental: (§1) The cytotoxicity of the substances was measured on four tumour cell lines: CCRF-CEM, HepG2, Hela, HL-60. All cell lines were purchased from ATCC (Manassas, VA, USA). Cells were cultured in RPMI-1640 or DMEM medium containing 10% (wt/wt) FBS and 1% (wt/wt) GlutaMax. Cells were distributed at 2,000-10,000 per well of a 384-well plate (Thermo Fisher Scientific, Waltham, USA) and incubated overnight. After 24 hours, test substance solutions (10 or 100 μmol·l^−1) were added to the wells and the cells were incubated with the test substances at 37° C. and 5% (vol./vol.) CO2 for another 72 h. XTT dye (XTT cell proliferation kit II, Roche Diagnostics GmbH, Mannheim, Germany) was added to the wells according to the manufacturer's protocol. After one hour of incubation with the dye, the absorbance at 495 nm was measured and the signal was compared with the control (100% viability=cells without test substance).

Hela = assay: Cytotoxicity (XTT) on Hela cells
Experimental: as §1

HepG2 = assay: Cytotoxicity (XTT) on HepG2 cells
Experimental: as §1

HL-60 = assay: Cytotoxicity (XTT) on HL-60 cells
Experimental: as §1

`CC(C)NC(=O)C(=O)[C@@H]1CCCN1C(=O)CNC(=O)c1ccnc2ccccc12` [Compound 3i, (S)—N-(2-(2-(2-(Isopropylamino)-2-oxoacetyl)pyrrolidin-1-yl)-2-oxoethyl)quinoline-4-carboxamide] was tested, and the “Cell viability CEM 10 μM” value (CCRF-CEM) was 93 % vs. control, the “Cell viability CEM 100 μM” value (CCRF-CEM) was 117 % vs. control and the “Cell viability HeLa S3 10 μM” value (Hela) was 78 % vs. control. For the same compound, the “Cell viability HeLa S3 100 μM” value (Hela) was 105 % vs. control, the “Cell viability HepG2 10 μM” value (HepG2) was 87 % vs. control and the “Cell viability HepG2 100 μM” value (HepG2) was 110 % vs. control. The “Cell viability HL60 10 μM” value (HL-60) was 111 % vs. control and the “Cell viability HL60 100 μM” value (HL-60) was 100 % vs. control.
With `COc1ccc(NC(=O)C(=O)[C@@H]2CCCN2C(=O)CNC(=O)c2ccnc3ccccc23)cc1` [Compound 3f, (S)—N-(2-(2-(2-((4-Methoxyphenyl)amino)-2-oxoacetyl)pyrrolidin-1-yl)-2-oxoethyl)quinoline-4-carboxamide] the “Cell viability CEM 10 μM” value (CCRF-CEM) was 92 % vs. control, the “Cell viability CEM 100 μM” value (CCRF-CEM) was 84 % vs. control and the “Cell viability HeLa S3 10 μM” value (Hela) was 103 % vs. control. The “Cell viability HeLa S3 100 μM” value (Hela) was 94 % vs. control, the “Cell viability HepG2 10 μM” value (HepG2) was 95 % vs. control and the “Cell viability HepG2 100 μM” value (HepG2) was 82 % vs. control. The “Cell viability HL60 10 μM” value (HL-60) was 110 % vs. control and the “Cell viability HL60 100 μM” value (HL-60) was 108 % vs. control.
With `O=C(CNC(=O)C(=O)[C@@H]1CCCN1C(=O)CNC(=O)c1ccnc2ccccc12)NCc1ccccc1` [Compound 5d, (S)—N-(2-(2-(2-((2-(Benzylamino)-2-oxoethyl)amino)-2-oxoacetyl)pyrrolidin-1-yl)-2-oxoethyl)quinoline-4-carboxamide] the “Cell viability CEM 10 μM” value (CCRF-CEM) was 89 % vs. control, the “Cell viability CEM 100 μM” value (CCRF-CEM) was 107 % vs. control and the “Cell viability HeLa S3 10 μM” value (Hela) was 95 % vs. control. The “Cell viability HeLa S3 100 μM” value (Hela) was 96 % vs. control, the “Cell viability HepG2 10 μM” value (HepG2) was 82 % vs. control and the “Cell viability HepG2 100 μM” value (HepG2) was 89 % vs. control. The “Cell viability HL60 10 μM” value (HL-60) was 112 % vs. control and the “Cell viability HL60 100 μM” value (HL-60) was 95 % vs. control.
In the case of `O=C(NCCc1ccccc1)C(=O)[C@@H]1CCCN1C(=O)CNC(=O)c1ccnc2ccccc12` [Compound 3d, (S)—N-(2-Oxo-2-(2-(2-oxo-2-(phenethylamino)acetyl)pyrrolidin-1-yl)ethyl)quinoline-4-carboxamide], the “Cell viability CEM 10 μM” value (CCRF-CEM) is reported as 105 % vs. control, the “Cell viability CEM 100 μM” value (CCRF-CEM) is reported as 85 % vs. control and the “Cell viability HeLa S3 10 μM” value (Hela) is reported as 86 % vs. control. The “Cell viability HeLa S3 100 μM” value (Hela) was 81 % vs. control, the “Cell viability HepG2 10 μM” value (HepG2) was 88 % vs. control and the “Cell viability HepG2 100 μM” value (HepG2) was 89 % vs. control. The “Cell viability HL60 10 μM” value (HL-60) was 110 % vs. control and the “Cell viability HL60 100 μM” value (HL-60) was 107 % vs. control.
`COC(=O)c1ccc(NC(=O)C(=O)[C@@H]2CCCN2C(=O)CNC(=O)c2ccnc3ccccc23)cc1` [Compound 3g, Methyl (S)-4-(2-oxo-2-(1-((quinoline-4-carbonyl)glycyl)pyrrolidin-2-yl)acetamido)benzoate] was tested, and the “Cell viability CEM 10 μM” value (CCRF-CEM) was 106 % vs. control, the “Cell viability CEM 100 μM” value (CCRF-CEM) was 73 % vs. control and the “Cell viability HeLa S3 10 μM” value (Hela) was 98 % vs. control. The “Cell viability HeLa S3 100 μM” value (Hela) was 89 % vs. control, the “Cell viability HepG2 10 μM” value (HepG2) was 93 % vs. control and the “Cell viability HepG2 100 μM” value (HepG2) was 63 % vs. control. For the same compound, the “Cell viability HL60 10 μM” value (HL-60) was 100 % vs. control and the “Cell viability HL60 100 μM” value (HL-60) was 103 % vs. control.
For `COC(=O)[C@H](CC(C)C)NC(=O)CNC(=O)C(=O)[C@@H]1CCCN1C(=O)CNC(=O)c1ccnc2ccccc12` [Compound 5e, Methyl (2-oxo-2-((S)-1-((quinoline-4-carbonyl)glycyl)pyrrolidin-2-yl)acetyl)glycyl-L-leucinate], the “Cell viability CEM 10 μM” value (CCRF-CEM) was 96 % vs. control, the “Cell viability CEM 100 μM” value (CCRF-CEM) was 104 % vs. control and the “Cell viability HeLa S3 10 μM” value (Hela) was 99 % vs. control. For the same compound, the “Cell viability HeLa S3 100 μM” value (Hela) was 106 % vs. control, the “Cell viability HepG2 10 μM” value (HepG2) was 75 % vs. control and the “Cell viability HepG2 100 μM” value (HepG2) was 110 % vs. control. For the same compound, the “Cell viability HL60 10 μM” value (HL-60) was 112 % vs. control and the “Cell viability HL60 100 μM” value (HL-60) was 83 % vs. control.
`CN(C)C(=O)CNC(=O)C(=O)[C@@H]1CCCN1C(=O)CNC(=O)c1ccnc2ccccc12` [Compound 5a, (S)—N-(2-(2-(2-((2-(Dimethylamino)-2-oxoethyl)amino)-2-oxoacetyl)pyrrolidin-1-yl)-2-oxoethyl)quinoline-4-carboxamide] was tested, and the “Cell viability CEM 10 μM” value (CCRF-CEM) was 104 % vs. control, the “Cell viability CEM 100 μM” value (CCRF-CEM) was 100 % vs. control and the “Cell viability HeLa S3 10 μM” value (Hela) was 92 % vs. control. For the same compound, the “Cell viability HeLa S3 100 μM” value (Hela) was 102 % vs. control, the “Cell viability HepG2 10 μM” value (HepG2) was 91 % vs. control and the “Cell viability HepG2 100 μM” value (HepG2) was 104 % vs. control. The “Cell viability HL60 10 μM” value (HL-60) was 105 % vs. control and the “Cell viability HL60 100 μM” value (HL-60) was 76 % vs. control.
For `CC(C)NC(=O)CNC(=O)C(=O)[C@@H]1CCCN1C(=O)CNC(=O)c1ccnc2ccccc12` [Compound 5c, (S)—N-(2-(2-(2-((2-(Isopropylamino)-2-oxoethyl)amino)-2-oxoacetyl)pyrrolidin-1-yl)-2-oxoethyl)quinoline-4-carboxamide], the “Cell viability CEM 10 μM” value (CCRF-CEM) was 113 % vs. control, the “Cell viability CEM 100 μM” value (CCRF-CEM) was 108 % vs. control and the “Cell viability HeLa S3 10 μM” value (Hela) was 119 % vs. control. The “Cell viability HeLa S3 100 μM” value (Hela) was 99 % vs. control, the “Cell viability HepG2 10 μM” value (HepG2) was 96 % vs. control and the “Cell viability HepG2 100 μM” value (HepG2) was 108 % vs. control. The “Cell viability HL60 10 μM” value (HL-60) was 86 % vs. control and the “Cell viability HL60 100 μM” value (HL-60) was 89 % vs. control.
For `COC(=O)C(C)NC(=O)C(=O)[C@@H]1CCCN1C(=O)CNC(=O)c1ccnc2ccccc12` (mixture of isomers) [Compound 3m, Methyl (2-oxo-2-((S)-1-((quinoline-4-carbonyl)glycyl)pyrrolidin-2-yl)acetyl)alaninate], the “Cell viability CEM 10 μM” value (CCRF-CEM) was 97 % vs. control, the “Cell viability CEM 100 μM” value (CCRF-CEM) was 120 % vs. control and the “Cell viability HeLa S3 10 μM” value (Hela) was 108 % vs. control. For the same compound, the “Cell viability HeLa S3 100 μM” value (Hela) was 104 % vs. control, the “Cell viability HepG2 10 μM” value (HepG2) was 91 % vs. control and the “Cell viability HepG2 100 μM” value (HepG2) was 105 % vs. control. The “Cell viability HL60 10 μM” value (HL-60) was 102 % vs. control and the “Cell viability HL60 100 μM” value (HL-60) was 124 % vs. control.
In the case of `COC(=O)CNC(=O)C(=O)[C@@H]1CCCN1C(=O)CNC(=O)c1ccnc2ccccc12` [Compound 3k, Methyl (S)-(2-oxo-2-(1-((quinoline-4-carbonyl)glycyl)pyrrolidin-2-yl)acetyl)glycinate], the “Cell viability CEM 10 μM” value (CCRF-CEM) is reported as 110 % vs. control, the “Cell viability CEM 100 μM” value (CCRF-CEM) is reported as 123 % vs. control and the “Cell viability HeLa S3 10 μM” value (Hela) is reported as 104 % vs. control. For the same compound, the “Cell viability HeLa S3 100 μM” value (Hela) was 94 % vs. control, the “Cell viability HepG2 10 μM” value (HepG2) was 109 % vs. control and the “Cell viability HepG2 100 μM” value (HepG2) was 105 % vs. control. For the same compound, the “Cell viability HL60 10 μM” value (HL-60) was 112 % vs. control and the “Cell viability HL60 100 μM” value (HL-60) was 103 % vs. control.
`O=C(NC1CC1)C(=O)[C@@H]1CCCN1C(=O)CNC(=O)c1ccnc2ccccc12` [Compound 3h, (S)—N-(2-(2-(2-(Cyclopropylamino)-2-oxoacetyl)pyrrolidin-1-yl)-2-oxoethyl)quinoline-4-carboxamide] was tested, and the “Cell viability CEM 10 μM” value (CCRF-CEM) was 94 % vs. control, the “Cell viability CEM 100 μM” value (CCRF-CEM) was 115 % vs. control and the “Cell viability HeLa S3 10 μM” value (Hela) was 89 % vs. control. The “Cell viability HeLa S3 100 μM” value (Hela) was 103 % vs. control, the “Cell viability HepG2 10 μM” value (HepG2) was 88 % vs. control and the “Cell viability HepG2 100 μM” value (HepG2) was 108 % vs. control. For the same compound, the “Cell viability HL60 10 μM” value (HL-60) was 110 % vs. control and the “Cell viability HL60 100 μM” value (HL-60) was 95 % vs. control.
With `O=C(NCC(=O)N1CCCC1)C(=O)[C@@H]1CCCN1C(=O)CNC(=O)c1ccnc2ccccc12` [Compound 5b] the “Cell viability CEM 10 μM” value (CCRF-CEM) was 90 % vs. control, the “Cell viability CEM 100 μM” value (CCRF-CEM) was 109 % vs. control and the “Cell viability HeLa S3 10 μM” value (Hela) was 93 % vs. control. For the same compound, the “Cell viability HeLa S3 100 μM” value (Hela) was 101 % vs. control, the “Cell viability HepG2 10 μM” value (HepG2) was 83 % vs. control and the “Cell viability HepG2 100 μM” value (HepG2) was 106 % vs. control. For the same compound, the “Cell viability HL60 10 μM” value (HL-60) was 111 % vs. control and the “Cell viability HL60 100 μM” value (HL-60) was 86 % vs. control.
